Assay results from PMC10787698, “Discovery and biocatalytic characterization of opine dehydrogenases by metagenome mining” (Applied Microbiology and Biotechnology, 2024).
Where a chain is given by its changes, count along the chain named. Names may count otherwise. Read-outs that look alike come from different tables or passages of the source. Blank lines part the entries; values can stand above or below the molecule they belong to.

Assays:
[1] = system: T1, mODH-582; experiment: NAD(P)H absorbance at […] nm, Michaelis-Menten; assay type: biochemical, hot spring metagenome; details: pyruvate 10 mM, 100 mM sodium phosphate pH 8.0, 30 °C
T1 construct: N-terminal His-tag, pET14b, E. coli BL21(DE3); codon-optimised synthetic gene; source reads SRR16606022; one of 11 TPA records BK063522-BK063532 (not assigned singly)

[2] = system: T2, mODH-45; experiment: NAD(P)H absorbance at […] nm, Michaelis-Menten; assay type: biochemical, hot spring metagenome; details: pyruvate 10 mM, 100 mM sodium phosphate pH 8.0, 30 °C
T2 construct: N-terminal His-tag, pET14b, E. coli BL21(DE3); codon-optimised synthetic gene; source reads SRR16606022; one of 11 TPA records BK063522-BK063532 (not assigned singly)

[3] = system: T3, mODH-49; experiment: NAD(P)H absorbance at […] nm, Michaelis-Menten; assay type: biochemical, hot spring metagenome; details: pyruvate 10 mM, 100 mM sodium phosphate pH 8.0, 30 °C
T3 construct: N-terminal His-tag, pET14b, E. coli BL21(DE3); codon-optimised synthetic gene; source reads SRR16606022; one of 11 TPA records BK063522-BK063532 (not assigned singly)

[4] = system: T4, mODH-47; experiment: NAD(P)H absorbance at […] nm, Michaelis-Menten; assay type: biochemical, hot spring metagenome; details: pyruvate 10 mM, 100 mM sodium phosphate pH 8.0, 30 °C
T4 construct: N-terminal His-tag, pET14b, E. coli BL21(DE3); codon-optimised synthetic gene; source reads SRR16606022; one of 11 TPA records BK063522-BK063532 (not assigned singly)

[5] = system: T5, mODH-55; experiment: NAD(P)H absorbance at […] nm, Michaelis-Menten; assay type: biochemical, hot spring metagenome; details: pyruvate 10 mM, 100 mM sodium phosphate pH 8.0, 30 °C
T5 construct: N-terminal His-tag, pET14b, E. coli BL21(DE3); codon-optimised synthetic gene; source reads SRR16606022; one of 11 TPA records BK063522-BK063532 (not assigned singly)

[6] = system: T6, mODH-48; experiment: NAD(P)H absorbance at […] nm, Michaelis-Menten; assay type: biochemical, hot spring metagenome; details: pyruvate 10 mM, 100 mM sodium phosphate pH 8.0, 30 °C
T6 construct: N-terminal His-tag, pET14b, E. coli BL21(DE3); codon-optimised synthetic gene; source reads SRR16606022; one of 11 TPA records BK063522-BK063532 (not assigned singly); identical to an obsolete UniParc entry

[7] = system: T1, mODH-582; experiment: NAD(P)H absorbance at […] nm, Michaelis-Menten; assay type: biochemical, hot spring metagenome; details: pyruvate 10 mM, NAD(P)H 0.2 mM, 100 mM sodium phosphate pH 8.0, 30 °C; read-out: L-Phe / KM
[8] = substrate: N[C@@H](Cc1ccccc1)C(=O)O; experiment: purified protein; assay type: biochemical, Arthrobacter sp. 1C; details: pyruvate 10 mM, NAD(P)H 0.2 mM, 100 mM sodium phosphate pH 8.0, 30 °C
[9] = substrate: N[C@@H](Cc1ccccc1)C(=O)O; experiment: purified protein, by the assay type; set-up: Michaelis-Menten kinetics of reductive amination with pyruvate, NAD(P)H consumption by absorbance at 340 nm, 30 °C, pH 8.0
Experimental: (§1) Enzyme activities were measured spectrophotometrically at 30 °C in 96-well half-area plates in a Thermo Scientific™ Multiskan SkyHigh Microplate Spectrophotometer (Thermo Fisher Scientific Inc., Waltham, MA, USA). Standard assays were carried out by using 15 mM amino acid and 0.2 mM NAD(P)H in 100 mM sodium phosphate buffer (pH = 8.0). The reaction was started by the addition of 10 mM pyruvate. The decrease in absorbance was monitored at 340 nm. Initial velocities (v0) were calculated from the linear section of the plots using an NAD(P)H calibration. For the determination of kinetic constants, amino acid concentrations were varied between 1 and 30 mM, while cofactor concentrations were between 0.04 and 0.5 mM. Depending on the specific activities of each enzyme, enzyme concentrations were fixed between 0.015 and 1.5 µM (Tables S9-S12). Kinetic constants were determined from the Michaelis–Menten plots using GraphPad Prism software (Tables S9-S12, Figures S15-S18). Heat stability experiments were carried out by incubating the enzymes at 40, 50, or 60 °C for 1 h before measuring their specific activities. Nine selected mODH genes as well as the coding sequence of ArODH were codon optimized for E. coli, synthesized by Genescript and cloned into pET14b vector using NdeI and BamHI cloning sites resulting in N-terminal His-tag proteins (for protein and nucleotide sequences see Table S2). Plasmids were transformed into E.coli BL21(DE3) chemically competent cells, and 5 mL overnight cultures were grown in Luria–Bertani (LB) medium supplemented with carbenicillin. Then, 4 mL was added to 500 mL fresh LB medium. The culture was grown at 37 °C to OD = 0.5 and induced by addition of 0.5 mM IPTG. The flasks were then incubated in a shaker at 18 °C overnight. The cells were harvested by centrifugation at 4000 rpm, 4 °C for 30 min. The pellets were resuspended in lysis buffer (50 mM Tris pH = 8.5, 300 mM NaCl, 1 mM benzamidine, 2 mM [compound left out] [compound left out], 1 mM Tris(2-carboxyethyl)phosphine (TCEP), DNase) and lysed by ultrasonication. The suspension was centrifuged at 11,000 rpm, 4 °C for 30 min. The supernatant was loaded onto equilibrated Ni–NTA column and washed with 15 mM imidazole in lysis buffer. The bound protein was eluted with 250 mM imidazole in lysis buffer and then dialyzed in 50 mM Tris pH = 8.5. The resulting solution was aliquoted after addition of 10% glycerol and then stored at − 20 °C until further use. Total protein concentration was determined based on absorption at 280 nm measured on a NanoDrop spectrophotometer. With this method, six mODHs and ArODH could be purified (see Table S2). Three mODHs were not expressed in soluble form in this experimental setting.

[10] = substrate: NC(=O)C1=CN([C@@H]2O[C@H](COP(=O)(O)OP(=O)(O)OC[C@H]3O[C@@H](n4cnc5c(N)ncnc54)[C@H](O)[C@@H]3O)[C@@H](O)[C@H]2O)C=CC1; experiment: purified protein, by the assay type; set-up: Michaelis-Menten kinetics of reductive amination with pyruvate, NAD(P)H consumption by absorbance at 340 nm, 30 °C, pH 8.0
Experimental: as §1

[11] = substrate: N[C@@H](CC(=O)O)C(=O)O; experiment: purified protein; details: pyruvate 10 mM, NAD(P)H 0.2 mM, 100 mM sodium phosphate pH 8.0, 30 °C
[12] = NAD(P)H 0.2 mM, read-out: L-Asp / KM
[13] = L-Asp 15 mM, read-out: NADH / KM
[14] = L-Asp 15 mM, read-out: NADPH / KM

Molecule: N[C@@H](Cc1ccccc1)C(=O)O [L-Phe]
- Km [7]: 32700 ± 4700 µM

B1: ArODH (Arthrobacter sp. 1C) (protein)
chain: MIESKTYAVLGLGNGGHAFAAYLALKGQSVLAWDIDAQRIKEIQDRGAIIAEGPGLAGTAHPDLLTSDIGLAVKDADVILIVVPAIHHASIAANIASYISEGQLIILNPGATGGALEFRKILRENGAPEVTIGETSSMLFTCRSERPGQVTVNAIKGAMDFACLPAAKAGWALEQIGSVLPQYVAVENVLHTSLTNVNAVMHPLPTLLNAARCESGTPFQYYLEGITPSVGSLAEKVDAERIAIAKAFDLNVPSVCEWYKESYGQSPATIYEAVQGNPAYRGIAGPINLNTRYFFEDVSTGLVPLSELGRAVNVPTPLIDAVLDLISSLIDTDFRKEGRTLEKLGLSGLTAAGIRSAVE
notes: N-terminal His-tag, pET14b, E. coli BL21(DE3); codon-optimised synthetic gene
- Km [8]: 1400 ± 500 µM
- kcat [8]: 861 ± 70 s⁻¹
- kcat/Km [8]: 630000 M⁻¹ s⁻¹
- Km [9]: 18100 ± 4500 µM
- Vmax [9]: 0.001 µmol/min
- kcat [9]: 11.1 ± 1.5 s⁻¹
- Km [10]: 292 ± 77 µM
- Vmax [10]: 0.11 µmol/min
- kcat [10]: 1240 ± 174 s⁻¹

B2: ArODH (Arthrobacter sp. 1C; A111R/N198G) (protein)
chain: B1 chain with A111R, N198G
- Km [11]: 58300 ± 19600 µM
- kcat [11]: 2.8 s⁻¹
- kcat/Km [11]: 50 M⁻¹ s⁻¹

Results, then the molecule that gave them:

- Km [1, 12]: 24800 ± 4600 µM
- Km [2, 12]: 21500 ± 5300 µM
- Km [3, 12]: 15000 ± 2300 µM
- Km [4, 12]: 1200 ± 300 µM
- Km [5, 12]: 1500 ± 200 µM
- Km [6, 12]: 500 ± 100 µM
Molecule: N[C@@H](CC(=O)O)C(=O)O [compound 3, L-Asp]

- Km [1, 13]: 29 ± 11 µM
- Km [2, 13]: 447 ± 64 µM
- Km [3, 13]: 1830 ± 423 µM
- Km [5, 13]: 442 ± 63 µM
- Km [6, 13]: 93 ± 15 µM
Molecule: NC(=O)C1=CN([C@@H]2O[C@H](COP(=O)(O)OP(=O)(O)OC[C@H]3O[C@@H](n4cnc5c(N)ncnc54)[C@H](O)[C@@H]3O)[C@@H](O)[C@H]2O)C=CC1 [NADH]

- Km [1, 14]: 318 ± 112 µM
- Km [2, 14]: 118 ± 24 µM
- Km [3, 14]: 85 ± 17 µM
- Km [4, 14]: 93 ± 21 µM
- Km [5, 14]: 68 ± 13 µM
- Km [6, 14]: 17 ± 7 µM
Molecule: NC(=O)C1=CN([C@@H]2O[C@H](COP(=O)(O)OP(=O)(O)OC[C@H]3O[C@@H](n4cnc5c(N)ncnc54)[C@H](OP(=O)(O)O)[C@@H]3O)[C@@H](O)[C@H]2O)C=CC1 [NADPH]
